Assay results from ChEMBL document CHEMBL5335800, “Focused Screening Identifies Different Sensitivities of Human TET Oxygenases to the Oncometabolite 2-Hydroxyglutarate” (J Med Chem, 2024).
Calls of active or inactive are those of the source. No cut-off for these calls is given here.

Columns and labels:
Homo sapiens [1] = species on record: Homo sapiens; conditions: dose 100.0 µM, time 20.0 min
U2OS [2] = assay type: toxicity, cell-based; conditions: human
[3] = target: T1, Methylcytosine dioxygenase TET1 (Homo sapiens, UniProt Q8NFU7)
[4] = target: T2, Methylcytosine dioxygenase TET3 (Homo sapiens, UniProt O43151); assay: Inhibition of human TET3 catalytic domain (E824 to I1795 residues) expressed in mammalian cells using 5-methylcytosine as substrate preincubated for 10 mins followed by DNA-cofactor addition and measured after 10 mins by Alphascreen assay
[5] = target: T2, Methylcytosine dioxygenase TET3; assay: Inhibition of human TET3 catalytic domain (E824 to I1795 residues) expressed in mammalian cells using 5-methylcytosine as substrate at 100 uM preincubated for 10 mins followed by DNA-cofactor addition and measured after 10 mins by Alphascreen assay relative to control; conditions: time 20.0 min
[6] = target: T1, Methylcytosine dioxygenase TET1; assay: Inhibition of N-terminal 3xFlag-tagged human TET1 catalytic domain (E1418 to V2136 residues) expressed in Sf9 cells using 5-methylcytosine as substrate preincubated for 10 mins followed by DNA-cofactor addition and measured after 30 mins by Alphascreen assay
[7] = target: T1, Methylcytosine dioxygenase TET1; assay: Inhibition of N-terminal 3xFlag-tagged human TET1 catalytic domain (E1418 to V2136 residues) expressed in Sf9 cells using 5-methylcytosine as substrate at 100 uM preincubated for 10 mins followed by DNA-cofactor addition and measured after 30 mins by Alphascreen assay relative to control; conditions: time 40.0 min
Homo sapiens [8] = species on record: Homo sapiens; assay: (§1) Inhibition of N-terminal His-tagged recombinant human TET2 catalytic domain LCIdel mutant (D1129 to G1936 residues with Y1481 to N1843 replaced by a 3 x GGGGS linker) expressed in Escherichia coli BL21 (DE3) using 5-methylcytosine as substrate at 100 uM preincubated for 10 mins followed by DNA-cofactor addition and measured after 10 mins by Alphascreen assay relative to control; conditions: time 20.0 min
U2OS [9] = assay type: toxicity, cell-based; conditions: human; remark: listed apart in the source
[10] = target: T1, Methylcytosine dioxygenase TET1; assay type: cell-based; conditions: U2OS, dose > 33.0 µM
[11] = target: T3, Methylcytosine dioxygenase TET2 (Homo sapiens, UniProt Q6N021); assay: biochemical
[12] = target: T3, Methylcytosine dioxygenase TET2; conditions: sf9
[13] = target: T1, Methylcytosine dioxygenase TET1; assay type: cell-based; conditions: U2OS, dose 1.0 mM
[14] = target: T1, Methylcytosine dioxygenase TET1; assay type: cell-based; conditions: U2OS, dose 3.0 mM
Homo sapiens [15] = species on record: Homo sapiens; assay: as §1, with “Competitive inhibition” for “Inhibition”, “substrate” for “substrate at 100 uM”, “addition in presence of 2-OG” for “addition”, “assay” for “assay relative to control”; conditions: time 20.0 min

T1 sequence (Q8NFU7 whole entry, the tested form may be a part): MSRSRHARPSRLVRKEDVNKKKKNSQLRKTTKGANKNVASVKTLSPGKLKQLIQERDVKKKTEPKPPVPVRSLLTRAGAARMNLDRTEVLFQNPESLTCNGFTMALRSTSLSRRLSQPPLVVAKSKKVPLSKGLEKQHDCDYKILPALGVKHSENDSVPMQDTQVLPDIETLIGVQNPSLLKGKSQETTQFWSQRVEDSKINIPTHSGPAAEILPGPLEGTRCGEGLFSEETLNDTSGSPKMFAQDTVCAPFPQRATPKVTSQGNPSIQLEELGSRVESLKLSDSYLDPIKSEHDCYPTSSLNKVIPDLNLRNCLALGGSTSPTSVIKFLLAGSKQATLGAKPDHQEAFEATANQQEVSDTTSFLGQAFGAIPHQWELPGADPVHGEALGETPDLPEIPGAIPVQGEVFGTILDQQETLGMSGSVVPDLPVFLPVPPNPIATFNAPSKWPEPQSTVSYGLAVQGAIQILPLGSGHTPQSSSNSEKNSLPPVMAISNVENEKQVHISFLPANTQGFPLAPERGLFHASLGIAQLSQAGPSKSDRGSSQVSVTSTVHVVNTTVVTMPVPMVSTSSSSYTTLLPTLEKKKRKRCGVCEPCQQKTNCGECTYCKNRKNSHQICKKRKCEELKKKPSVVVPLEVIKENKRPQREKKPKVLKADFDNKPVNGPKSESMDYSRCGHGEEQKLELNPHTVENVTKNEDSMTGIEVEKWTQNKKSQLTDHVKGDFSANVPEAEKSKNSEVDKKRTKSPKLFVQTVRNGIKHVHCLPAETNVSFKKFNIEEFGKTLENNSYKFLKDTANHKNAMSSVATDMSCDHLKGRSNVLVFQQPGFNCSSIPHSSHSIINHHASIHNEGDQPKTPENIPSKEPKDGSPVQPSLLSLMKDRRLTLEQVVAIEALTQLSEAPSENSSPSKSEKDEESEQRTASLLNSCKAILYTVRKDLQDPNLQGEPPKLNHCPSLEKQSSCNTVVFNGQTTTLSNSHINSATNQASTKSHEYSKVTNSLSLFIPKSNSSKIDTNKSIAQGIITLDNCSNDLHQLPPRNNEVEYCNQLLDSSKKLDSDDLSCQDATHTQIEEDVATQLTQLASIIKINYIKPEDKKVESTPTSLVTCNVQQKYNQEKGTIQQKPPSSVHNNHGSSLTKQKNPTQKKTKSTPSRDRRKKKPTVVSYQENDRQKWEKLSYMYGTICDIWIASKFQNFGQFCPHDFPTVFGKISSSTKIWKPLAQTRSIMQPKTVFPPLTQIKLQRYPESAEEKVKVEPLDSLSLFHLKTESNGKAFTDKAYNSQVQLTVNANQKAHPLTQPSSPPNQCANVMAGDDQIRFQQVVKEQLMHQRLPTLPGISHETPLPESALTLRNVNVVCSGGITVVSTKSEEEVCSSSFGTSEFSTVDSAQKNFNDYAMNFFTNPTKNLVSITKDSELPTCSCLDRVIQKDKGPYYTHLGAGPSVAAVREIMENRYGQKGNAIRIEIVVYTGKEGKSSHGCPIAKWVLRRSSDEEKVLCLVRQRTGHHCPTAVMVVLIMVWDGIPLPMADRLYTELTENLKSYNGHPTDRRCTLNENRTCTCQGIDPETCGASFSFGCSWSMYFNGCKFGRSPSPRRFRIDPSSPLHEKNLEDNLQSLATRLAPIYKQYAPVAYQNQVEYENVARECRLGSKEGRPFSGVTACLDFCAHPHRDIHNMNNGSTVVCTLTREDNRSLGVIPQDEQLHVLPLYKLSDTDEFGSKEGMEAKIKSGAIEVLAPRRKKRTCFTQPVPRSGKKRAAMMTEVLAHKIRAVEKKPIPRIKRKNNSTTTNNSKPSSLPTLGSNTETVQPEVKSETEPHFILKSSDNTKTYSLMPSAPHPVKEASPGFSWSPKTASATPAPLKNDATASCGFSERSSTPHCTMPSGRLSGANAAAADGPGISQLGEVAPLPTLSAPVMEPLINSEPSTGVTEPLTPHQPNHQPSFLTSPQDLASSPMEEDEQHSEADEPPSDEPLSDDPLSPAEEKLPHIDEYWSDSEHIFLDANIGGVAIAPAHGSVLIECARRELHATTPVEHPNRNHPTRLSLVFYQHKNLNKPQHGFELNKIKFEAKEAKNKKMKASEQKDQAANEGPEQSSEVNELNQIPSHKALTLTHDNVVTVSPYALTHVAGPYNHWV
T2 sequence (O43151 whole entry, the tested form may be a part): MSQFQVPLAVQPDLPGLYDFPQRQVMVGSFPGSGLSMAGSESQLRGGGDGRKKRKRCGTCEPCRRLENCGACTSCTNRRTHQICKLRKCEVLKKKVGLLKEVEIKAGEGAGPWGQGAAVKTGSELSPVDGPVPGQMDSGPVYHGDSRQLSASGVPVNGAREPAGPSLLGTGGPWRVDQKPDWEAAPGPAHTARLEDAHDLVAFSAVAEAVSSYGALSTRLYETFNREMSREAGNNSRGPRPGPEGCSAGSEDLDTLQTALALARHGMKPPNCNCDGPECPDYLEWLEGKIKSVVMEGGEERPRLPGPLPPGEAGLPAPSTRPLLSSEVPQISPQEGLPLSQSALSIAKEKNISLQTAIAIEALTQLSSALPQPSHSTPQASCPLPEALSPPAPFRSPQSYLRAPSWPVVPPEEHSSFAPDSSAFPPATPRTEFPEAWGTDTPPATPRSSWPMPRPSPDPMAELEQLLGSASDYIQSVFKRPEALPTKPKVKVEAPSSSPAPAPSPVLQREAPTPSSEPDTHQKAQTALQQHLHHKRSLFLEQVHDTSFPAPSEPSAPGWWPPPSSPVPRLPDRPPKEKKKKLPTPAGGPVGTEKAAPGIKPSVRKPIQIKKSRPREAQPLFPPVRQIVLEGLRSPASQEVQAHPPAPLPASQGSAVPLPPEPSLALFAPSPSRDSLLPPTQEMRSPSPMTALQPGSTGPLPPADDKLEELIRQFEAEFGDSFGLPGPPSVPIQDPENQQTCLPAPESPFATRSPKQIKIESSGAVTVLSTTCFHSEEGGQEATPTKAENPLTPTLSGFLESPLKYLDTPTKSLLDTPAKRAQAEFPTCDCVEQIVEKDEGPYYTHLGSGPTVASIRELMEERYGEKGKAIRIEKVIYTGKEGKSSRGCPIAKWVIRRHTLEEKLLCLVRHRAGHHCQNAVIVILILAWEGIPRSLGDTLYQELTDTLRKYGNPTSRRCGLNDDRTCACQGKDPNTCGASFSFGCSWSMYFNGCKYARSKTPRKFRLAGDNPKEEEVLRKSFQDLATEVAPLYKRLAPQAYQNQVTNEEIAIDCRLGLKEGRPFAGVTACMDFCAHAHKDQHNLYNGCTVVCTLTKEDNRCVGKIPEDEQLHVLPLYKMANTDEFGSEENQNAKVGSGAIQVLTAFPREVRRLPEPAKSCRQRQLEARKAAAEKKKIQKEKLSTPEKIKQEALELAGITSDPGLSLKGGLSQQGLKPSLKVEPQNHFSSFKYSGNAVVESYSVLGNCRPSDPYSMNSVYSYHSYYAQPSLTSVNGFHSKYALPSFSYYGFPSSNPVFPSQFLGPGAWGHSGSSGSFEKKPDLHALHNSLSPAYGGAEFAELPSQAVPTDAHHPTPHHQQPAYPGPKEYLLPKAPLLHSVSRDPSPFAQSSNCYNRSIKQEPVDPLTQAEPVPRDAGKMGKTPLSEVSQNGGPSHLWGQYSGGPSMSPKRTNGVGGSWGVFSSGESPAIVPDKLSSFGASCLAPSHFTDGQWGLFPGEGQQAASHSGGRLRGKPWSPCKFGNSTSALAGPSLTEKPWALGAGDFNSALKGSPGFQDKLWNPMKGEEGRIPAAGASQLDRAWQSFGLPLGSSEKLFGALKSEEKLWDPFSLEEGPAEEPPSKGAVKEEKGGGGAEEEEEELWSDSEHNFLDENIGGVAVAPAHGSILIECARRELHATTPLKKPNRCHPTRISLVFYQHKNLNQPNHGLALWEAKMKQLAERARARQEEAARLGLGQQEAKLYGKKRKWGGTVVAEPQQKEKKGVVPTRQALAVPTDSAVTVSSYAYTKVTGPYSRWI

In the case of Cc1cn([C@H]2C[C@H](O)[C@@H](CO)O2)c(=O)nc1N, the inhibition (Homo sapiens [1]) is reported as under 20%.

For COC(=O)CCC(=O)C(=O)OC, the pCC50 (U2OS [2]) was under 2.

Compound O=c1c(-n2ccnn2)c[nH]n1-c1cc(N2CCOCC2)ncn1 [MOLIDUSTAT] has an EC50 [3] of about 100 µM.

CCN(CCN(C)C)C(=O)CNCc1cc(C(N)=O)ccn1 gave an IC50 ([4]; read-out: IC50) of over 100 µM, an inhibition (Homo sapiens [1]) of under 20% and an inhibition [5] of under 20%. For the same compound, the IC50 ([6]; read-out: IC50) was over 100 µM and the inhibition [7] was under 20%.

Compound Cc1nc(C(=O)NCC(=O)O)c(O)c2ccc(Oc3ccccc3)cc12 [ROXADUSTAT] has an inhibition (Homo sapiens [8]) of under 20%, an IC50 ([4]; read-out: IC50) of at least 100 µM and an IC50 ([4]; read-out: pIC50 (converted)) of at least 100 µM. The IC50 ([6]; read-out: pIC50 (converted)) was at least 100 µM and the IC50 ([6]; sf9, read-out: IC50) was at least 100 µM.

In the case of O=C(O)CNC(=O)c1nc(Cl)c2ccccc2c1O, the IC50 ([4]; read-out: IC50) is reported as at least 100 µM, the IC50 ([4]; read-out: pIC50 (converted)) is reported as at least 100 µM and the IC50 ([6]; read-out: pIC50 (converted)) is reported as at least 100 µM. It also gave an IC50 ([6]; sf9, read-out: IC50) of at least 100 µM.

O=C(O)CCNc1cc(N2CCc3ccccc3CC2)nc(-c2ccccn2)n1 showed an inhibition (Homo sapiens [8]) of under 20% and an IC50 ([6]; read-out: IC50) of over 100 µM.

With Cc1[nH]c2ccccc2c1CCNCc1ccc(/C=C/C(=O)NO)cc1 [PANOBINOSTAT] the Activity (U2OS [9]) was “Dose-Dependent Effect” and the inhibition [10] was “Active”.

O=C(O)CNC(=O)c1c(O)n(C2CCCCC2)c(=O)n(C2CCCCC2)c1=O was tested, and the IC50 ([4]; read-out: IC50) was at least 100 µM, the IC50 ([4]; read-out: pIC50 (converted)) was at least 100 µM and the IC50 [11] was at least 100 µM. The inhibition [5] was 36%, the IC50 ([6]; read-out: pIC50 (converted)) was at least 100 µM and the IC50 ([6]; sf9, read-out: IC50) was at least 100 µM. For the same compound, the inhibition [7] was 63% and the IC50 [12] was at least 100 µM.

Compound Nc1nc(=O)n([C@H]2C[C@H](O)[C@@H](CO)O2)cc1CO has an inhibition (Homo sapiens [1]) of under 20%.

CN(c1ccccc1)c1ccc2c(c1)CCC[C@H]2CNc1cnccc1C(=O)O showed an IC50 ([4]; read-out: IC50) of over 100 µM and an IC50 ([6]; read-out: IC50) of over 100 µM.

CCCCCCCCOC(=O)[C@H](O)CCC(=O)O showed a pCC50 (U2OS [2]) of under 2.7.

For COC(=O)c1ccnc(C(=O)OC)c1, the inhibition [13] was “inactive”.

Work on CC(C)c1c(-c2ccccc2)[nH]c2c(C#N)cnn2c1=O yielded an inhibition (Homo sapiens [8]) of under 20%, an IC50 ([4]; read-out: IC50) of over 100 µM and an inhibition (Homo sapiens [1]) of under 20%. For the same compound, the inhibition [5] was under 20%, the IC50 ([6]; read-out: IC50) was over 100 µM and the inhibition [7] was under 20%.

O=C(O)CNC(=O)c1c(O)c2ccccc2n(Cc2ccccc2)c1=O was tested, and the IC50 ([4]; read-out: IC50) was at least 100 µM, the IC50 ([4]; read-out: pIC50 (converted)) was at least 100 µM and the inhibition [5] was under 20%. It also gave an IC50 ([6]; read-out: pIC50 (converted)) of at least 100 µM and an IC50 ([6]; sf9, read-out: IC50) of at least 100 µM.

For CCCCCCCCOC(=O)[C@@H](O)CCC(=O)O, the inhibition [14] was “inactive” and the pCC50 (U2OS [2]) was under 2.7.

O=C(O)c1ccc(O)c2ncccc12 was tested, and the inhibition (Homo sapiens [15]) was “Active”.
